Consider one compound from PMC9144145, “Preclinical Safety and Pharmacokinetics of Heat Stable Oxytocin in Sublingual Fast-Dissolving Tablet Formulation” (Pharmaceutics, 2022).

The nature of the data set: GLP toxicokinetic study in anesthetized rabbits, plasma oxytocin by LC-MS/MS. Format: in vivo. To be noted: rabbit, IM, 10 IU. On the procedure: The toxicokinetic study in rabbits (Table 2) was conducted at a contract animal facility (Noble Life Sciences, Sykesville, MD, USA) under approval from Noble Life Sciences IACUC (approval code: NLS-589, date: 13 May 2020) and in compliance with the U.S. Food and Drug Administration Good Laboratory Practice Regulations for Nonclinical Laboratory Studies (21 CFR Part 58).
For SL placement of fast dissolving tablets, the rabbit was anesthetized and positioned on a flat table, with the lower jaw strongly supported in a horizontal level on the table. Using rounded tip stainless tweezers, the rabbit’s tongue was carefully raised, and the sublingual tablet was placed beneath the tongue (see Figure 1). Anesthesia was maintained for 3 h after drug administration to keep the tablet in sublingual position and prevent entering the gastrointestinal tract.
Animals were not fasted prior to blood collection. Blood was collected at the time points of 0 min (pre-dose) and 5, 10, 15, 20, 30, 60, 120, and 180 min post-dose and at euthanasia only the first four animals for SL group. All animals were anesthetized pre-dose, prior to dosing. All animals were anesthetized with ketamine (35–50 mg/kg) and xylazine (3–5 mg/kg) via a subcutaneous or intramuscular (IM) route followed by maintenance anesthesia with additional half doses if needed or via inhaled isoflurane. At the selected time points, whole blood was collected aseptically from the auricular artery and dispensed into the appropriate collection tubes in any order: (1) K3 EDTA for hematology determinations; (2) 0.129 M, 3.8% sodium citrate for coagulation analyses (plasma); (3) serum separator tube for serum chemistry and C-reactive protein; and (4) aprotinin-spiked (K2EDTA) tubes for plasma oxytocin determinations. Tubes containing hematology specimens were placed at room temperature on a rocker for at least 30 min prior to shipment. Tubes containing whole blood for serum isolation were maintained for at least 30 min and no more than 4 h at room temperature before being processed to serum. Tubes containing aprotinin-spiked (K2EDTA) specimens for oxytocin determinations were maintained on wet ice or cold packs before use and after collection. They were also maintained on a rocker for at least 30 min prior to processing.
Blood samples for oxytocin determination were collected into the Aprotinin spiked (K2EDTA) vacutainer tubes and processed for collection of plasma. The samples were processed by centrifuging for approximately 15 min at approximately 3000 rpm and approximately 4 °C; they were aliquoted into cryovials without anticoagulant and were immediately placed on dry ice. At termination, blood was collected from the SL group for serum chemistry, C-reactive protein, hematology, and coagulation. Blood collected for coagulation analyses was collected into tubes containing 3.8% sodium citrate and was processed for plasma per the Noble protocol. All serum and plasma samples were processed aseptically.
Each plasma sample was aliquoted into two vials of an approximately equal volume. All the collected plasma was analyzed for oxytocin levels by the LC-MS/MS method.
The bioanalytical method for quantification of oxytocin in rabbit plasma (K2EDTA) was validated following the FDA guidelines for a bioanalytical method validation at NorthEast BioAnalytical Laboratory, LLC (NEBA) (Hamden, CT, USA), via reverse phase liquid chromatography separation (Column: Zorbax SB C18 (Agilent, Santa Clara, CA, USA) 3.5 μm 150 × 4.6 mm, Security/Guard Cartridge Gemini C18 4 × 2.0 mm) and detection by tandem mass spectrometry (LC/MS/MS) using Sciex API-5000 Mass Spectrometer. Analysis of Oxytocin was performed using stable label internal standard, Oxytocin-d5. Oxytocin was received as an acetate salt and Oxytocin-d5 was received as Trifluoroacetate salt.
For quantitation, the LC/MS/MS data were acquired using Analyst® v1.6 software (Sciex, Framingham, MA, USA). […]

In general, AUC(0-t) refers to exposure summed from dosing to a finite time, without extrapolation to infinity. The term half-life denotes the time in which the quantity being followed falls by half. One may read the Tmax as the time from dosing to the highest level. A word on the Cmax: it is the maximum level reached in the sampled fluid or tissue. As to `CC[C@H](C)[C@@H]1NC(=O)[C@H](Cc2ccc(O)cc2)NC(=O)[C@@H](N)CSSC[C@@H](C(=O)N2CCC[C@H]2C(=O)N[C@@H](CC(C)C)C(=O)NCC(N)=O)NC(=O)[C@H](CC(N)=O)NC(=O)[C@H](CCC(N)=O)NC1=O` [Intramuscular (Control), Oxytocin], the “time to rapid increase in plasma oxytocin concentration” value is at most 5 min. The AUC(0-t) (plasma, linear trapezoidal, mean, n = 8) came to 4.82 ± 0.728 ng·h/mL. Under “plasma, mean, n = 8”, the half-life is 61.2 ± 20.2 min. The same compound showed a Tlast (mean, n = 8) of 2.88 ± 0.354 h. Under “plasma, LC-MS/MS, mean ± SD, n = 8, SD”, the time to peak (Tmax) was determined as 1.13 ± 0.916 h. Under “plasma, LC-MS/MS, mean, n = 8”, this compound yielded a maximum concentration (Cmax) of 2.66 ± 0.567 ng/mL.
